Reference: EPA's ToxValDB 9.5 (doi:10.2903/j.efsa.2016.4453)
“And” between values parts separate entries of the source, which are not always exact repeats. Equal entries are not always repeated.

How the values were obtained:
[1] = system: Anas platyrhynchos; conditions: acute; oral; unspecified; mortality
[2] = system: Apis mellifera; conditions: acute, mortality
[3] = system: Canidae; conditions: chronic; duration: 1 years; oral; Dog Other; body weight
[4] = system: Colinus virginianus
[5] = system: Coturnix japonica; conditions: acute; oral; mortality
[6] = system: Folsomia candida; conditions: chronic/long-term; duration: 28 days; reproduction
[7] = system: Oncorhynchus mykiss; conditions: acute; duration: 96 hours; mortality
[8] = system: Plant; conditions: chronic/long-term; duration: 6 weeks
[9] = system: Rattus norvegicus
[10] = system: Salmo trutta ssp. fario; conditions: chronic/long-term; duration: 28 days; growth
[11] = system: Typhlodromus pyri; assay: LR50; higher = less toxic; conditions: not reported; mortality

COC(=O)c1ccc(I)cc1S(=O)(=O)[N-]C(=O)Nc1nc(C)nc(OC)n1.[Na+] [Iodosulfuron methyl ester sodium salt]
LD50 [1]: > 2000 mg/kg
LD50 ([2]; duration: 48 hours, dermal): > 100 µg/piece
LD50 ([2]; duration: 72 hours, oral, unspecified): > 70 µg/piece
NOAEL [3]: 7 mg/kg-day
LD50 ([4]; acute, oral, mortality): > 2000 mg/kg
NOEL ([4]; reproduction developmental, reproduction): 78 mg/kg-day
LD50 [5]: > 2000 mg/kg
NOEC [6]: 316 mg/kg
LC50 [7]: 0.684 µg/mL
NOAEC [8]: 0.27 µg/L and 0.16 µg/L
LD50 ([9]; acute, Wistar, mortality): 2680 mg/kg
NOAEL ([9]; chronic, duration: 2 years, F, Wistar, body weight): 3.91 mg/kg-day
NOAEL ([9]; chronic, duration: 2 years, M, Wistar, body weight): 2.96 mg/kg-day
NOAEL ([9]; chronic, duration: 2 years, body weight): 3 mg/kg-day
NOAEL ([9]; developmental, development): 315 mg/kg-day
NOEC [10]: 7.79 mg/L
LR50 [11]: > 30.3 g/ha
